Assay results taken from patent publication US20230406839A1, “Bifunctional Compounds And Methods Of Using The Same” (The General Hospital Corporation, priority 2020, published 2023).

What was measured:
[1] = test system: HeLa cells; assay: Azide metabolic labeling of HeLa cells, detected with DBCO-FAM by flow cytometry; format: cell-based; conditions: AzNAM 125 μM for 20 hours, versus cells receiving no azide-modified sugar (FIG. 2)
Description: In separate trials, HeLa cells were added to wells of a 12-well plate at 10,000 cells/well, and cultured for 72 hours under normal conditions. The wells were then washed with 1 ml of PBS, and 0.5 ml of DMEM-10% FBS was added. AzNAM was then added to a final concentration of 125 μM, with cells receiving no azide-modified sugar as controls. After 20 hours, cells were harvested with CellStripper (250 μl/well), washed with PBS, and subjected to flow analysis.

[2] = test system: HeLa cells; assay: Azide metabolic labeling of HeLa cells, detected with DBCO-FAM in a fluorescent plate reader; format: cell-based; conditions: AzNAM 25-125 μM for 20 hours, then DBCO-FAM 10 μM for 1 hour, 96-well plate reader (FIG. 1)
Description: Initially, cells are cultured in a suitable culture vessel such that their level of confluency at the time of addition of the azide-modified sugar AzNAM is not more than 80%.
In particular, HeLa cells were plated in 6-well plates (2.5×10^4 cells/well) and incubated for 48 hours in DMEM-10% FBS medium in a standard 5% CO2 atmosphere. Medium from each well was removed, and each well was washed with 2 ml of phosphate buffered saline (PBS), and fresh DMEM-FBS (1 ml) added. Subsequently, varying amounts of AzNAM (solubilized in DMSO) were added to the wells in small (10 μl) volumes to produce the desired final concentrations in the range 25-125 μM. After an additional 20 hours incubation, the medium in each well was removed, and the wells were washed with 2 ml of PBS, followed by addition of 1 ml of PBS. Then, a fluorescent bio-orthogonally azide-reactive reagent DBCO-FAM (Broadpharm) was directly added to each well to produce a final concentration of 10 μM.
Plates with added DBCO-FAM were protected from bright light and incubated for 1 hour at room temperature. Supernatants in each well were then removed, and each well was washed twice with 2 ml of PBS. […] After pelleting and washing in PBS, cells were resuspended in 150 μl of PBS and counted. Defined numbers in 50 μl volumes in a 96-well Blackwell plate (Corning) were assayed for fluorescence in a fluorescent plate reader (Tecan).

azido-N-acetylmannosamine [AzNAM]
flow cytometry peak shift after reaction with DBCO-FAM [1]: marked and well-demarcated peak shifts were observed
cell-associated fluorescence after reaction with DBCO-FAM [2]: cell-associated fluorescence increased as a function of the levels of AzNAM
